# Assay results reported in patent publication US11229712B2, “In vivo detection of a xenon-binding cage molecule” (Lakehead University, priority 2016, dated 2022).
# “Also recorded” adds a separate entry of the source.
# Assays:
# [1] = HyperCEST 129Xe MR imaging of syringes with CB6 blood solution and saturation map; assay type: physicochemical, bovine; conditions: 2.5 mM CB6 in blood, on-resonance pre-pulses at 124.3 ppm (FIG. 4)
# From the text: We obtained MR images of two syringes within the same field of view: one filled with a CB6 blood solution, the other with only a blood solution and no CB6 molecules (FIG. 4). Signal from the plasma, gas phase, and RBC-bound xenon is present in the control image (FIG. 4A). We observed a gas phase chemical shift artifact, offset by 43 pixels of 67.1 mm. Additionally, we observed a stronger gas phase signal from the control solution (right syringe) than the CB6 syringe (left syringe). We attribute this phenomenon to the differences in the extent of blood foam formation between the two solutions. The control solution foamed more than the CB6 solution, which provided a reservoir of gaseous hyperpolarized xenon to exchange with the xenon dissolved in the plasma providing a stronger xenon-plasma signal. […] A saturation map was produced (FIG. 4C) by normalizing each image by Its own background noise and subtracting the off-resonance control image from the HyperCEST saturation image and normalizing pixel-by-pixel, the off-resonance image. […]
# ^129Xe gas was polarized to 30% using a Xemed polarizer (Xemed, Durham, N.H.). […] The signal-noise ratio (SNR) of each spectrum was calculated using MATLAB (MathWorks, Natick Mass.). Signal depletion values due to the HyperCEST effect were measured by subtracting the HyperCEST saturation spectrum SNR from the control spectrum SNR and dividing by the control SNR.
# [2] = In vivo HyperCEST 129Xe MR spectra of abdomen and brain after IV CB6; design: species or system Sprague-Dawley rat; conditions: 3 mL of 10 mM CB6 IV, pre-pulse +124.3 ppm
# Experimental: A 10 mM solution of the CB6 cage molecule dissolved in 1×PBS (pH 7.2) was prepared. 3 mL of the CB6 solution was injected into the tail vein catheter of a Sprague-Dawley rat and allowed to bio-distribute for 30 minutes. An endotracheal tube was surgically placed in the anaesthetized rat, and the rat was ventilated with 100% oxygen using a custom made ventilator. The rat was placed into a whole body custom made rat RF coil. Five seconds prior to xenon MR image acquisition, the rat was ventilated with a gas mixture of 80% xenon/20% oxygen. We acquired free induction decay (FID) magnetic resonance spectra (MRS) (FIGS. 5 & 6, A & D) from both the abdomen and head of the rat. […] We attribute this to a variety of susceptibility and line broadening effects occurring in vivo. […]
# (§1) A midline incision was made in the neck of the rat and the trachea localized. […] A Positive End Expiratory Pressure of 20 mBar was measured. […]
# 30 minutes following injection of CB6, the ventilator was set to continuously dispense an 80% xenon/20% oxygen mixture to the rat. […] The signal to noise ratio (SNR) of each spectrum was calculated using MATLAB. The HyperCEST depletion at each chemical shift offset was calculated and plotted using Microsoft Excel.
# [3] = from reference 14; cited from earlier work
# [4] = In vivo HyperCEST 129Xe MRI saturation maps showing location of CB6; design: species or system Sprague-Dawley rat; conditions: rat
# From the text: We then acquired ^1H turbo spin echo (TSE) MR images to correlate the xenon signal with its anatomical location. Immediately prior to ^129Xe image acquisition, the rat was ventilated with xenon as described above. The imaging sequence began with a saturation pre-pulse consisting of sixteen 20 ms 3-lobe sinc pulses with a 3 sec pulse interval applied at […] chemical shift frequencies. ^129Xe gradient echo (GE) images were acquired with both on-resonance and off-resonance saturation pre-pulses (FIGS. 6 & 7B & E). […] By applying the HyperCEST saturation pulses, we observed a reduction in signal in areas containing the CB6 molecules (FIGS. 6 & 7E).
# We also created a HyperCEST saturation map in the brain of the rat (FIG. 8B).
# All animal procedures were approved by the Lakehead University Animal Care Committee. Sprague-Dawley rats (n=6) (Charles River, Sherbrook QC) weighing between 300-400 g were anesthetized using 4 LPM of isoflurane until their corneal reflex became absent. […]
# as §1
# 30 minutes following CB6 injection, the ventilator was set to dispense xenon to the rat. […] Images were collected and analyzed using MATLAB. […]
# [5] = HyperCEST depletion of CB6 in whole bovine blood (129Xe NMR spectra, 3T); assay type: physicochemical
# Experimental: […] of cucurbituril (CB6) was made by dissolving 50 mg of CB6 (Sigma-Aldrich, St. Louis, USA) in 10 mL of 1× phosphate buffered saline (PBS) at pH 7.2 at room temperature. The mixture was shaken gently. Ten mL of the CB6-PBS solution was mixed with 10 mL of fresh citrated bovine blood (Cederlane, Burlington Calif.) within a 30 mL syringe to create a 2.5 mM solution of CB6 in a blood solution. The control sample was prepared in an identical manner as the CB6 solution except CB6 was omitted. The control sample contained 10 mL of PBS and 10 mL of bovine blood.
# Serial dilutions of CB6 in blood were made by adding an appropriate amount of blood to the 2.5 mM stock solution.
# ^129Xe gas was polarized to 30% using a Xemed polarizer (Xemed, Durham, N.H.). 7.5 mL of HP ^129Xe gas was introduced into the syringe over 5 s from the Tedlar bag in the pressure chamber which was pressurized at 3 psi above atmosphere. The solution and gas were mixed by agitating the syringe for approximately 12 s. Approximately 3 mL of ^129Xe dissolved in the blood/PBS solvent, the remaining undissolved ^129Xe was ejected from the syringe, yielding an effective ^129Xe concentration of 7.5 mM. The procedure was repeated for each spectral acquisition for the HyperCEST depletion spectrum. The 30 mL syringe containing the CB6-blood solution was placed inside a custom RF coil tuned to the Larmor frequency of 129Xe (35.33 MHz) at 3T. A Philips Achieva 3T clinical scanner was used to acquire all NMR spectra and MR images. A free induction decay (FID) was collected and the chemical shift of the ^129Xe/CB6 complex was noted. Ref B1 is a parameter of Philips MR scanners and is used to calculate the RF pulse length. The scanner uses the pulse length and flip angle to determine the amplitude of the RF pulse and field strength. For these experiments, the scanner set a B1 field strength of 1.18 μT. For the NMR spectra and images, a pulsed saturation pre-pulse train consisting of 16-6 ms 3-lobe sinc pulses with 3 ms pulse intervals was applied +124.3 ppm off resonance from the gas phase peak which corresponds to the chemical shift of the CB6-Xe complex. For initial HyperCEST depletion measurements, control spectra were collected with an off resonance saturation pre-pulse at 258 ppm. A HyperCEST depletion spectrum was collected by measuring HyperCEST depletion at various shift offsets from the CB6/Xe peak. A minimum of 3 spectra were collected at each chemical shift and the mean signal depletion was plotted as a function of the frequency of the chemical shift offset. The signal-noise ratio (SNR) of each spectrum was calculated using MATLAB (MathWorks, Natick Mass.). Signal depletion values due to the HyperCEST effect were measured by subtracting the HyperCEST saturation spectrum SNR from the control spectrum SNR and dividing by the control SNR.
smiles,measurement,setting,value
"O=C1N2CN3C(=O)N4CN5C(=O)N6CN7C(=O)N8CN9C(=O)N%10CN%11C(=O)N%12CN1C1C2N2CN%13C(=O)N(CN%14C(=O)N(CN%15C(=O)N(CN%16C(=O)N(CN%17C(=O)N(CN1C2=O)C%12C%11%17)C%10C9%16)C8C7%15)C6C5%14)C4C3%13 (centres unmarked) [CB6, cucurbituril]",Depletion of dissolved phase xenon signal in MR image and saturation map,[1],almost complete depletion; also recorded: strong CB6 HyperCEST signal depletion
same,Reduction in signal intensity compared to the off-resonance control spectrum,"[2]; rat abdomen, 30 minutes",86%
same,Reduction in signal intensity of the MR signal,[2]; rat brain,38%
same,Xe-CB6 exchange,[3],1470 s⁻¹
same,Location of CB6 in HyperCEST saturation map,"[4]; 3 mL of 10 mM CB6 IV, imaging 30 minutes after injection","heart, lungs, aorta, kidneys, and bladder; also recorded: brain, heart, lungs, aorta, carotid arteries, and kidneys"
same,Excretion of CB6,[4]; weak HyperCEST signal from the bladder,renal clearance into the bladder; also recorded: excreted by the kidneys
same,HyperCEST depletion as a function of CB6 concentration,[5]; 250 μM CB6 in whole bovine blood (FIG. 3),14%
same,HyperCEST depletion in the dissolved phase xenon signal,"[5]; 2.5 mM CB6 in blood and PBS, saturation pre-pulse train at +124.3 ppm (FIG. 1)",84%
same,HyperCEST depletion as a function of CB6 concentration,[5]; 2.5 mM CB6 in whole bovine blood (FIG. 3),80%
same,"HyperCEST signal depletion, local minimum of depletion spectrum","[5]; CB6 in blood, pulsed at +124.3 ppm (FIG. 2)",74%
same,Lowest CB6 concentration at which HyperCEST depletion was measurable,[5]; serial dilutions of CB6 in blood,10 µM
